Assay results published in patent US20260022142A1, “MACROCYCLIC IMMUNOMODULATORS” (Bristol-Myers Squibb Company, priority 2022, published 2026).
Numbered stars: 1 amine (or outer) side, 2 acyl side, 3 side chain; on linkers, the order of the positions; unused ones are H or OH. Bridge positions count the residues as written; N and C are the ends. Square brackets hold non-standard residues; d marks the D form. Peptide text beside a SMILES is read from it. * marks the point of attachment. ξ: configuration not given here. Phe(3-CF3) = N[C@@H](Cc1cccc(C(F)(F)F)c1)C(=O)O; Phe(4-COOH) = N[C@@H](Cc1ccc(C(=O)O)cc1)C(=O)O; Bip = N[C@@H](Cc1ccc(-c2ccccc2)cc1)C(=O)O; Tyr(3-Me) = Cc1cc(C[C@H](N)C(=O)O)ccc1O; Phe(3-Me) = Cc1cccc(C[C@H](N)C(=O)O)c1; βAsp = O=C(O)[C@H](CC(=O)[*:2])N[*:1]; NH(CH2)12COOH = O=C(O)CCCCCCCCCCCCN*; Val(3-OH) = CC(C)(O)[C@H](N)C(=O)O; hArg = N=C(N)NCCCC[C@H](N)C(=O)O; 4Pal = N[C@@H](Cc1ccncc1)C(=O)O; 3Thi = N[C@@H](Cc1ccsc1)C(=O)O; Cha = N[C@@H](CC1CCCCC1)C(=O)O; Cit = NC(=O)NCCC[C@H](N)C(=O)O; Thr(3ξ) = CC(O)[C@H](N)C(=O)O; hCys = N[C@@H](CCS)C(=O)O; Carboxymethyl = O=C(O)C*; Orn = NCCC[C@H](N)C(=O)O; Pra = C#CC[C@H](N)C(=O)O; Aun = NCCCCCCCCCCC(=O)O; Dab = NCC[C@H](N)C(=O)O; Nva = CCC[C@H](N)C(=O)O; Abu = CC[C@H](N)C(=O)O; Dap = NC[C@H](N)C(=O)O; AEEA = NCCOCCOCC(=O)O

target: T1, PD-1/PD-L1 interaction (PE-labeled human PD-L1-Ig binding to Jurkat cell line over-expressing human PD-1) (Homo sapiens, UniProt Q15116); experiment: Jurkat-PD-1 Cell Binding High-Content Screening Assay (CBA); format: cell-based; conditions: Jurkat cell line over-expressing human PD-1; PE-labeled PD-L1-Ig 20 nM final; read-out: Jurkat hPD1-PDL1 IC50
T1 construct: expressed in transfected cells; host or cells: Jurkat
In short: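 First, compound is added to PD-1-expressing Jurkat cells in serum-containing DMEM and left 2 h at 37° C. Next, PE-conjugated PD-L1-Ig is introduced at 20 nM final concentration for 1 hour. Finally, cells are fixed in 4% paraformaldehyde with Hoechst 33342, washed and imaged.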

T1 sequence (Q15116 25-288): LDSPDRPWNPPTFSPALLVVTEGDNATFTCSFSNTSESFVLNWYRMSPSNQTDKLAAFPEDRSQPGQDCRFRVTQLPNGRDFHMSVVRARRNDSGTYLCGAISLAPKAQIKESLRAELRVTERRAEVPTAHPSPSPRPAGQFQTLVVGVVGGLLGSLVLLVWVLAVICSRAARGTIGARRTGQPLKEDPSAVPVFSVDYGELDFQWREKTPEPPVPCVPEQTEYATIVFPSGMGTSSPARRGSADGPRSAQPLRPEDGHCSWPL

IC50 | SMILES
6.3 nM | Cc1cccc(C[C@@H]2NC(=O)[C@H](CC(=O)O)NC(=O)[C@H](Cc3ccc(OCC(=O)O)cc3)NC(=O)[C@H](CCN)NC(=O)CSC[C@@H](C(=O)N[C@@H](CCN)C(=O)NCCCCCCCCCCC(=O)O)NC(=O)[C@H](CCCN)NC(=O)[C@H](C(C)(C)O)NC(=O)[C@H](CC3CCCCC3)NC(=O)[C@H](CCN)NC(=O)[C@@H](CC(C)C)NC(=O)[C@H](CCCN)NC(=O)[C@H](Cc3ccc(OCC(=O)O)cc3)NC(=O)[C@H](Cc3ccc(-c4ccccc4)cc3)NC(=O)[C@H](Cc3ccc(OCC(=O)O)cc3)NC2=O)c1 [Compound 3634] ({CH2CO}-[Dab]Y(Carboxymethyl)D[Phe(3-Me)]Y(Carboxymethyl)[Bip]Y(Carboxymethyl)[Orn][dL][Dab][Cha][Val(3-OH)][Orn]C[Dab][Aun]-OH; thioether N-14)
98.7 nM | CC(C)C[C@H]1NC(=O)[C@H](CCN)NC(=O)[C@H](C(C)C)NC(=O)[C@H](Cc2ccc(-c3ccccc3)cc2)NC(=O)[C@H](C(C)C)NC(=O)[C@H](Cc2c[nH]c3ccccc23)NC(=O)[C@H](CC(=O)O)NC(=O)[C@H](Cc2ccc(OCC(=O)O)cc2)NC(=O)[C@H](Cc2ccsc2)NC(=O)CSC[C@@H](C(=O)N[C@@H](CCCN)C(=O)NCCCCCCCCCCC(=O)O)NC(=O)[C@H](C(C)O)NC(=O)[C@H](C(C)C)NC(=O)[C@H](CC2CCCCC2)NC(=O)[C@H](CCN)NC1=O (stereo partly drawn) [Compound 3281] ({CH2CO}-[3Thi]Y(Carboxymethyl)DWV[Bip]V[Dab][dL][Dab][Cha]V[Thr(3ξ)]C[Orn][Aun]-OH; thioether N-14)
13 nM | CC(C)C[C@H]1NC(=O)[C@H](CCCN)NC(=O)[C@H](C(C)C)NC(=O)[C@H](Cc2ccc(-c3ccccc3)cc2)NC(=O)[C@H](C(C)C)NC(=O)[C@H](Cc2c[nH]c3ccccc23)NC(=O)[C@H](CC(=O)O)NC(=O)[C@H](Cc2ccc(OCC(=O)O)cc2)NC(=O)[C@H](CCCNC(=N)N)NC(=O)CSC[C@@H](C(=O)N[C@@H](CCN)C(=O)NCCCCCCCCCCC(=O)O)NC(=O)[C@H](CCCN)NC(=O)[C@H](C(C)C)NC(=O)[C@H](CC2CCCCC2)NC(=O)[C@H](CCN)NC1=O [Compound 3289] ({CH2CO}-RY(Carboxymethyl)DWV[Bip]V[Orn][dL][Dab][Cha]V[Orn]C[Dab][Aun]-OH; thioether N-14)
3.9 nM | CC[C@@H]1NC(=O)CSC[C@@H](C(=O)N[C@@H](CCN)C(=O)NCCOCCOCC(=O)N[C@@H](CCC(=O)O)C(=O)NCCCCCCCCCCCCC(=O)O)NC(=O)[C@H](CO)NC(=O)[C@H](C(C)(C)O)NC(=O)[C@H](CC2CCCCC2)NC(=O)[C@H](CCN)NC(=O)[C@@H](CC(C)C)NC(=O)[C@H](CCCN)NC(=O)[C@H](Cc2ccc(OCC(=O)O)cc2)NC(=O)[C@H](Cc2ccc(-c3ccccc3)cc2)NC(=O)[C@H](Cc2ccc(OCC(=O)O)cc2)NC(=O)[C@H](Cc2cccc(C)c2)NC(=O)[C@H](CC(=O)O)NC(=O)[C@H](Cc2ccc(OCC(=O)O)cc2)NC1=O [Compound 3811] ({CH2CO}-[Abu]Y(Carboxymethyl)D[Phe(3-Me)]Y(Carboxymethyl)[Bip]Y(Carboxymethyl)[Orn][dL][Dab][Cha][Val(3-OH)]SC[Dab][AEEA]E-{NH(CH2)12COOH}; thioether N-14)
0.2 nM | CCC[C@@H]1NC(=O)CSC[C@@H](C(=O)N[C@@H](CCN)C(=O)NCCOCCOCC(=O)NCCCCCCCCCCC(=O)O)NC(=O)[C@H](CC(=O)O)NC(=O)[C@H](C(C)C)NC(=O)[C@H](CC2CCCCC2)NC(=O)[C@H](CCN)NC(=O)[C@@H](CC(C)C)NC(=O)[C@H](CCCN)NC(=O)[C@H](Cc2ccc(OCC(=O)O)cc2)NC(=O)[C@H](Cc2ccc(-c3ccccc3)cc2)NC(=O)[C@H](Cc2ccc(OCC(=O)O)cc2)NC(=O)[C@H](Cc2cccc(C)c2)NC(=O)[C@H](CC(=O)O)NC(=O)[C@H](Cc2ccc(OCC(=O)O)cc2)NC1=O [Compound 3804] ({CH2CO}-[Nva]Y(Carboxymethyl)D[Phe(3-Me)]Y(Carboxymethyl)[Bip]Y(Carboxymethyl)[Orn][dL][Dab][Cha]VDC[Dab][AEEA][Aun]-OH; thioether N-14)

More lines, now with the values behind:

SMILES | IC50
CC(C)C[C@H]1NC(=O)[C@H](CCCN)NC(=O)[C@H](C(C)C)NC(=O)[C@H](Cc2ccc(-c3ccccc3)cc2)NC(=O)[C@H](C(C)C)NC(=O)[C@H](Cc2c[nH]c3ccccc23)NC(=O)[C@H](CC(=O)O)NC(=O)[C@H](Cc2ccc(OCC(=O)O)cc2)NC(=O)[C@H](CN)NC(=O)CSC[C@@H](C(=O)NCCCCCCCCCCC(=O)O)NC(=O)[C@H](CCCCN)NC(=O)[C@H](C(C)C)NC(=O)[C@H](CC2CCCCC2)NC(=O)[C@H](CCN)NC1=O [Compound 2603] ({CH2CO}-[Dap]Y(Carboxymethyl)DWV[Bip]V[Orn][dL][Dab][Cha]VKC[Aun]-OH; thioether N-14) | 7.1 nM
CC(C)C[C@H]1NC(=O)[C@H](CCCN)NC(=O)[C@H](C(C)C)NC(=O)[C@H](Cc2ccc(-c3ccccc3)cc2)NC(=O)[C@H](C(C)C)NC(=O)[C@H](Cc2c[nH]c3ccccc23)NC(=O)[C@H](CC(=O)O)NC(=O)[C@H](Cc2ccc(OCC(=O)O)cc2)NC(=O)[C@H](CCCCNC(=N)N)NC(=O)CSC[C@@H](C(=O)N[C@@H](C)C(=O)NCCOCCOCC(=O)N[C@@H](CCN)C(=O)NCCCCCCCCCCC(=O)O)NC(=O)[C@H](C(C)O)NC(=O)[C@H](C(C)C)NC(=O)[C@H](CC2CCCCC2)NC(=O)[C@H](CCN)NC1=O (stereo partly drawn) [Compound 3028] ({CH2CO}-[hArg]Y(Carboxymethyl)DWV[Bip]V[Orn][dL][Dab][Cha]V[Thr(3ξ)]CA[AEEA][Dab][Aun]-OH; thioether N-14) | 16.4 nM
CC(C)C[C@H]1NC(=O)[C@H](CCCN)NC(=O)[C@H](C(C)C)NC(=O)[C@H](Cc2ccc(-c3ccccc3)cc2)NC(=O)[C@H](C(C)C)NC(=O)[C@H](Cc2c[nH]c3ccccc23)NC(=O)[C@H](CC(=O)O)NC(=O)[C@H](Cc2ccc(OCC(=O)O)cc2)NC(=O)[C@H](CN)NC(=O)CSC[C@@H](C(=O)N[C@@H](CC(=O)O)C(=O)NCC(=O)NCCCCCCCCCCC(=O)O)NC(=O)[C@H]([C@@H](C)O)NC(=O)[C@H](C(C)C)NC(=O)[C@H](CC2CCCCC2)NC(=O)[C@H](Cc2cnc[nH]2)NC1=O [Compound 1092] ({CH2CO}-[Dap]Y(Carboxymethyl)DWV[Bip]V[Orn][dL]H[Cha]VTCDG[Aun]-OH; thioether N-14) | 37.3 nM
Cc1cc(C[C@@H]2NC(=O)[C@H](CC(=O)O)NC(=O)[C@H](Cc3ccc(OCC(=O)O)cc3)NC(=O)[C@H](CCCNC(=N)N)NC(=O)CSC[C@@H](C(=O)N[C@@H](CCN)C(=O)NCCCCCCCCCCC(=O)O)NC(=O)[C@H]([C@@H](C)O)NC(=O)[C@H](C(C)C)NC(=O)[C@H](CC3CCCCC3)NC(=O)[C@H](CCN)NC(=O)[C@@H](CC(C)C)NC(=O)[C@H](CCCN)NC(=O)[C@H](Cc3ccc(O)cc3)NC(=O)[C@H](Cc3ccc(-c4ccccc4)cc3)NC(=O)[C@H](Cc3ccc(O)cc3)NC2=O)ccc1O [Compound 2104] ({CH2CO}-RY(Carboxymethyl)D[Tyr(3-Me)]Y[Bip]Y[Orn][dL][Dab][Cha]VTC[Dab][Aun]-OH; thioether N-14) | 22.3 nM
Cc1cccc(C[C@@H]2NC(=O)[C@H](CC(=O)O)NC(=O)[C@H](Cc3ccc(OCC(=O)O)cc3)NC(=O)[C@H](CCCCNC(=N)N)NC(=O)CSC[C@@H](C(=O)N[C@@H](CCN)C(=O)NCCCCCCCCCCC(=O)O)NC(=O)[C@H](CCCCN)NC(=O)[C@H](C(C)C)NC(=O)[C@H](CC3CCCCC3)NC(=O)[C@H](CCN)NC(=O)[C@@H](CC(C)C)NC(=O)[C@H](CCCN)NC(=O)[C@H](C(C)C)NC(=O)[C@H](Cc3ccc(-c4ccccc4)cc3)NC(=O)[C@H](C(C)C)NC2=O)c1 [Compound 3260] ({CH2CO}-[hArg]Y(Carboxymethyl)D[Phe(3-Me)]V[Bip]V[Orn][dL][Dab][Cha]VKC[Dab][Aun]-OH; thioether N-14) | 12.2 nM
Cc1cccc(C[C@@H]2NC(=O)[C@H](CC(=O)O)NC(=O)[C@H](Cc3ccc(OCC(=O)O)cc3)NC(=O)[C@H](CN)NC(=O)CSCC[C@@H](C(=O)N[C@@H](C)C(=O)N[C@@H](CCC(=O)O)C(=O)NCCCCCCCCCCC(=O)O)NC(=O)[C@H]([C@@H](C)O)NC(=O)[C@H](C(C)C)NC(=O)[C@H](CC3CCCCC3)NC(=O)[C@H](CCN)NC(=O)[C@@H](CC(C)C)NC(=O)[C@H](CCCN)NC(=O)[C@H](CCCNC(N)=O)NC(=O)[C@H](Cc3ccc(-c4ccccc4)cc3)NC(=O)[C@H](C(C)C)NC2=O)c1 [Compound 2781] ({CH2CO}-[Dap]Y(Carboxymethyl)D[Phe(3-Me)]V[Bip][Cit][Orn][dL][Dab][Cha]VT[hCys]AE[Aun]-OH; thioether N-14) | 74.3 nM
C#CC[C@H](NC(=O)COCCOCCNC(=O)[C@@H]1CSCC(=O)N[C@@H](Cc2ccncc2)C(=O)N[C@@H](Cc2ccc(OCC(=O)O)cc2)C(=O)N[C@@H](CC(=O)O)C(=O)N[C@@H](Cc2c[nH]c3ccccc23)C(=O)N[C@@H](C(C)C)C(=O)N[C@@H](Cc2ccc(-c3ccccc3)cc2)C(=O)N[C@@H]([C@@H](C)CC)C(=O)N[C@@H](CCCN)C(=O)N[C@H](CC(C)C)C(=O)N[C@@H](CCN)C(=O)N[C@@H](CC(C)C)C(=O)N[C@@H](C(C)C)C(=O)N[C@@H]([C@@H](C)O)C(=O)N1)C(=O)N[C@@H](CCCNC(=N)N)C(=O)NCCCCCCCCCCC(=O)O [Compound 1215] ({CH2CO}-[4Pal]Y(Carboxymethyl)DWV[Bip]I[Orn][dL][Dab]LVTC[AEEA][Pra]R[Aun]-OH; thioether N-14) | 13.8 nM
CC(C)C[C@H]1NC(=O)[C@H](CCCN)NC(=O)[C@H](Cc2ccc(C(=O)O)cc2)NC(=O)[C@H](Cc2ccc(-c3ccccc3)cc2)NC(=O)[C@H](Cc2ccc(C(=O)O)cc2)NC(=O)[C@H](Cc2cccc(C(F)(F)F)c2)NC(=O)[C@H](CC(=O)O)NC(=O)[C@H](Cc2ccc(OCC(=O)O)cc2)NC(=O)[C@H](CCN)NC(=O)CSC[C@@H](C(=O)N[C@@H](CCN)C(=O)NCCOCCOCC(=O)N[C@@H](CC(=O)NCCOCCOCC(=O)NCCCCCCCCCCCCC(=O)O)C(=O)O)NC(=O)[C@H](CO)NC(=O)[C@H](C(C)(C)O)NC(=O)[C@H](CC2CCCCC2)NC(=O)[C@H](CCN)NC1=O [Compound 2943] ({CH2CO}-[Dab]Y(Carboxymethyl)D[Phe(3-CF3)][Phe(4-COOH)][Bip][Phe(4-COOH)][Orn][dL][Dab][Cha][Val(3-OH)]SC[Dab][AEEA][βAsp][AEEA]-{NH(CH2)12COOH}; thioether N-14) | 75.8 nM
